Starred links: 1 amine or outer side, 2 acyl side, 3 side chain; linkers in the order of their positions; H or OH if unused. Non-standard residues stand in square brackets, D forms with d. Residues, ends and D or L forms follow the SMILES beside them. No end group written: not given here. X1 = CC(C)[C@@H](C(=O)[*:2])N(C[C@@H](N)Cc1ccccc1)[*:1]; β3hPhg = O=C(C[C@@H](N[*:1])c1ccccc1)[*:2]; Sar = CNCC(=O)O
Legend:
[1] = Pharmacokinetic experiment on pulmonarily administered native motilin and motilin derivative compounds in rats (RIA); format: in vivo, rat; conditions: pulmonary administration; for Cmax / AUC / BA: 25 μg/rat; for AUC: trapezoidal method; for BA: relative to AUC of intravenous native motilin
Protocol: As test animals, 7- to 10-wk old male SD rats (purchased from CHARLES RIVER LABORATORIES JAPAN, INC.) that consisted of 3 rats per a group were subjected to the following experiment. Native motilin or motilin derivative compounds were dissolved in an aqueous solution of 0.1 N acetic acid to prepare a solution at a concentration of 1 mg/mL and 25 μL of the solution was administered into the polyethylene tube through the trachea by means of an intratracheal liquid spraying device (MicroSprayer; product of Penn Century). […] In the measurement, the respective derivatives were used as standard substances to construct calibration curves for determining the plasma levels.
Using these values, bioavailability (BA (%)) was calculated by the following equation: BA(%)=[(AUC/Dose)/(AUC(motilin—iv)/Dose(motilin—iv))]×100 • AUC: AUC (ng·min/mL) after pulmonary administration • Dose: dose (μg/kg) in pulmonary administration • AUC (motilin_iv): AUC (ng·min/mL) after intravenous administration of native motilin • Dose (motilin_iv): dose (μg/kg) in intravenous administration of native motilin.

[2] = tested on: conscious dog's gastrointestinal tract; assay: Fasting IMC inducing activity in conscious dogs (force transducers); format: in vivo; conditions: fasting period, intravenous, 0.1 μg/kg
From the text: More specifically, dogs under anesthesia were subjected to a surgical operation in which force transducers were sutured to the serous membranes of the gastric antrum, duodenum, jejunum and ileum along the ring-shaped muscle and, thereafter, the strain from each transducer was sent to a recorder via an amplifier.

[3] = male, SD, plasma, inhaled or intranasal, 25 ug/animal

| Molecule | Cmax [1, 3] | AUC [1, 3] | BA [1] | also measured |
| --- | --- | --- | --- | --- |
| CC[C@H](C)[C@H](NC(=O)[C@@H]1CCCN1C(=O)[C@@H](NC[C@@H](N)Cc1ccccc1)C(C)C)C(=O)N[C@@H](Cc1ccccc1)C(=O)N[C@H](C(=O)N[C@@H](Cc1ccc(O)cc1)C(=O)NCC(=O)N[C@@H](CC(=O)O)C(=O)N[C@@H](CC(C)C)C(=O)N[C@@H](CCC(N)=O)C(=O)N[C@@H](CCCNC(=N)N)C(=O)N[C@@H](CC(C)C)C(=O)N[C@@H](CCC(N)=O)C(=O)N[C@@H](CCC(=O)O)C(=O)N[C@@H](CCCCN)C(=O)N[C@@H](CCC(=O)O)C(=O)N[C@@H](CCCNC(=N)N)C(=O)N1CCC[C@H]1C(=O)N[C@@H](CCCCN)C(=O)N1CCC[C@H]1C(=O)N[C@@H](CCC(N)=O)C(=O)O)[C@@H](C)O [Compound 12] (H-[X1]PIFTYGDLQRLQEKERPKPQ-OH; N-terminus and C-terminus assumed) | 30.1 ± 15.8 ng/mL | 9.42 ng·h/mL | 18.7 ± 10.7% |  |
| CC[C@H](C)[C@H](NC(=O)CN(C)C(=O)[C@@H](NC(=O)C[C@@H](N)c1ccccc1)C(C)C)C(=O)N[C@@H](Cc1ccccc1)C(=O)N[C@H](C(=O)N[C@@H](Cc1ccc(O)cc1)C(=O)NCC(=O)N[C@@H](CCC(=O)O)C(=O)N[C@@H](CC(C)C)C(=O)N[C@@H](CCC(N)=O)C(=O)N[C@@H](CCCNC(=N)N)C(=O)N[C@@H](CC(C)C)C(=O)N[C@@H](CCC(N)=O)C(=O)N[C@@H](CCC(=O)O)C(=O)N[C@@H](CCCCN)C(=O)N[C@@H](CCC(=O)O)C(=O)N[C@@H](CCCNC(=N)N)C(=O)N1CCC[C@H]1C(=O)N[C@@H](CCCCN)C(=O)N1CCC[C@H]1C(=O)N[C@@H](CCC(N)=O)C(=O)O)[C@@H](C)O [Compound 5, Phg(C#CH2) Val Sar Ile Phe Thr Tyr Gly Glu Leu Gln Arg Leu Gln Glu Lys Glu Arg Pro Lys Pro Gln] (β3hPhg-V[Sar]IFTYGELQRLQEKERPKPQ-OH; N-terminus and C-terminus assumed) | 14.8 ± 7.78 ng/mL | 2.92 ng·h/mL | 5.7 ± 2.9% |  |
| CC[C@H](C)[C@H](NC(=O)[C@@H]1CCCN1C(=O)[C@@H](NC(=O)[C@@H](N)Cc1ccccc1)C(C)C)C(=O)N[C@@H](Cc1ccccc1)C(=O)N[C@H](C(=O)N[C@@H](Cc1ccc(O)cc1)C(=O)NCC(=O)N[C@@H](CCC(=O)O)C(=O)N[C@@H](CC(C)C)C(=O)N[C@@H](CCC(N)=O)C(=O)N[C@@H](CCCNC(=N)N)C(=O)N[C@@H](CCSC)C(=O)N[C@@H](CCC(N)=O)C(=O)N[C@@H](CCC(=O)O)C(=O)N[C@@H](CCCCN)C(=O)N[C@@H](CCC(=O)O)C(=O)N[C@@H](CCCNC(=N)N)C(=O)N[C@@H](CC(N)=O)C(=O)N[C@@H](CCCCN)C(=O)N1CCC[C@H]1C(=O)N[C@@H](CCC(N)=O)C(=O)O)[C@@H](C)O [Compound 1] | 9.09 ± 0.53 ng/mL | 1.99 ng·h/mL | 5.3 ± 0.6% | BA ([1]; listed as compound 1): 5.3% |
| CC[C@H](C)[C@H](NC(=O)[C@@H]1CCCN1C(=O)[C@@H](NC[C@@H](N)Cc1ccccc1)C(C)C)C(=O)N[C@@H](Cc1ccccc1)C(=O)N[C@H](C(=O)N[C@@H](Cc1ccc(O)cc1)C(=O)NCC(=O)N[C@@H](CCC(=O)O)C(=O)N[C@@H](CC(C)C)C(=O)N[C@@H](CCC(N)=O)C(=O)N[C@@H](CCCNC(=N)N)C(=O)N[C@@H](CCSC)C(=O)N[C@@H](CCC(N)=O)C(=O)N[C@@H](CCC(=O)O)C(=O)N[C@@H](CCCCN)C(=O)N[C@@H](CCC(=O)O)C(=O)N[C@@H](CCCNC(=N)N)C(=O)N[C@@H](CC(N)=O)C(=O)N[C@@H](CCCCN)C(=O)NCC(=O)N[C@@H](CCC(N)=O)C(=O)O)[C@@H](C)O [Comparative compound 2, reference compound] (H-[X1]PIFTYGELQRMQEKERNKGQ-OH; N-terminus and C-terminus assumed) | 9.3 ± 3.09 ng/mL | 1.98 ng·h/mL | 4.1 ± 1.6% | BA ([1]; listed as comparative compound 2): 4.1% |
| CC[C@H](C)[C@H](NC(=O)[C@@H]1CCCN1C(=O)[C@@H](NC[C@@H](N)Cc1ccccc1)C(C)C)C(=O)N[C@@H](Cc1ccccc1)C(=O)N[C@H](C(=O)N[C@@H](Cc1ccc(O)cc1)C(=O)NCC(=O)N[C@@H](CCC(=O)O)C(=O)N[C@@H](CC(C)C)C(=O)N[C@@H](CCC(N)=O)C(=O)N[C@@H](CCCNC(=N)N)C(=O)N[C@@H](CCSC)C(=O)N[C@@H](CCC(N)=O)C(=O)N[C@@H](CCC(=O)O)C(=O)N[C@@H](CCCCN)C(=O)N[C@@H](CCC(=O)O)C(=O)N[C@@H](CCCNC(=N)N)C(=O)N[C@@H](CC(N)=O)C(=O)N[C@@H](CCCCN)C(=O)N1CCC[C@H]1C(=O)N[C@@H](CCC(N)=O)C(=O)O)[C@@H](C)O [Compound 6] (H-[X1]PIFTYGELQRMQEKERNKPQ-OH; N-terminus and C-terminus assumed) | 34.2 ± 20 ng/mL | 6.34 ng·h/mL | 11.5 ± 6.1% | BA ([1]; listed as compound 6): 11.5%; profile of plasma concentration compared with native motilin ([1]; FIG. 3): high peak levels |
| CC[C@H](C)[C@H](NC(=O)[C@@H]1CCCN1C(=O)[C@@H](NC[C@@H](N)Cc1ccccc1)C(C)C)C(=O)N[C@@H](Cc1ccccc1)C(=O)N[C@H](C(=O)N[C@@H](Cc1ccc(O)cc1)C(=O)NCC(=O)N[C@@H](CCC(=O)O)C(=O)N[C@@H](CC(C)C)C(=O)N[C@@H](CCC(N)=O)C(=O)N[C@@H](CCCNC(=N)N)C(=O)N[C@@H](CC(C)C)C(=O)N[C@@H](CCC(N)=O)C(=O)N[C@@H](CCC(=O)O)C(=O)N[C@@H](CCCCN)C(=O)N[C@@H](CCC(=O)O)C(=O)N[C@@H](CCCNC(=N)N)C(=O)N[C@@H](CC(N)=O)C(=O)N[C@@H](CCCCN)C(=O)N1CCC[C@H]1C(=O)N[C@@H](CCC(N)=O)C(=O)O)[C@@H](C)O [Compound 7] (H-[X1]PIFTYGELQRLQEKERNKPQ-OH; N-terminus and C-terminus assumed) | 17.2 ± 7.18 ng/mL | 3.24 ng·h/mL | 6.4 ± 1.3% |  |
| CC[C@H](C)[C@H](NC(=O)[C@@H]1CCCN1C(=O)[C@@H](NC[C@@H](N)Cc1ccccc1)C(C)C)C(=O)N[C@@H](Cc1ccccc1)C(=O)N[C@H](C(=O)N[C@@H](Cc1ccc(O)cc1)C(=O)NCC(=O)N[C@@H](CC(=O)O)C(=O)N[C@@H](CC(C)C)C(=O)N[C@@H](CCC(N)=O)C(=O)N[C@@H](CCCNC(=N)N)C(=O)N[C@@H](CCSC)C(=O)N[C@@H](CCC(N)=O)C(=O)N[C@@H](CCC(=O)O)C(=O)N[C@@H](CCCCN)C(=O)N[C@@H](CCC(=O)O)C(=O)N[C@@H](CCCNC(=N)N)C(=O)N1CCC[C@H]1C(=O)N[C@@H](CCCCN)C(=O)N1CCC[C@H]1C(=O)N[C@@H](CCC(N)=O)C(=O)O)[C@@H](C)O [Compound 13] (H-[X1]PIFTYGDLQRMQEKERPKPQ-OH; N-terminus and C-terminus assumed) | 18.4 ± 10.4 ng/mL | 3.09 ng·h/mL | 5.6 ± 1.5% |  |
| FVPIFTYGELQRLQEKERNKGQ [Comparative compound 1, reference compound] | 4.53 ± 2.86 ng/mL | 1.05 ng·h/mL | 2.8 ± 1.6% | BA ([1]; listed as comparative compound 1): 2.8% |
| FVPIFTYGDLQRLQEKERPKPQ [Compound 3] | 24.6 ± 5.8 ng/mL | 4.7 ng·h/mL | 9.5 ± 0.9% |  |
| FVPIFTYGELQRLQEKERPKPQ [Compound 9] | 8.99 ± 5.99 ng/mL | 1.93 ng·h/mL | 5.7 ± 3.1% |  |
| CC[C@H](C)[C@H](NC(=O)CN(C)C(=O)[C@@H](NC(=O)C[C@@H](N)c1ccccc1)C(C)C)C(=O)N[C@@H](Cc1ccccc1)C(=O)N[C@H](C(=O)N[C@@H](Cc1ccc(O)cc1)C(=O)NCC(=O)N[C@@H](CCC(=O)O)C(=O)N[C@@H](CC(C)C)C(=O)N[C@@H](CCC(N)=O)C(=O)N[C@@H](CCCNC(=N)N)C(=O)N[C@@H](CCSC)C(=O)N[C@@H](CCC(N)=O)C(=O)N[C@@H](CCC(=O)O)C(=O)N[C@@H](CCCCN)C(=O)N[C@@H](CCC(=O)O)C(=O)N[C@@H](CCCNC(=N)N)C(=O)N1CCC[C@H]1C(=O)N[C@@H](CCCCN)C(=O)N1CCC[C@H]1C(=O)N[C@@H](CCC(N)=O)C(=O)O)[C@@H](C)O [Compound 10, Phg(C#CH2) Val Sar Ile Phe Thr Tyr Gly Glu Leu Gln Arg Met Gln Glu Lys Glu Arg Pro Lys Pro Gln] (β3hPhg-V[Sar]IFTYGELQRMQEKERPKPQ-OH; N-terminus and C-terminus assumed) |  |  | 5.9 ± 0.8% | IMC Inducing activity [2]: Positive; Cmax ([1]; in vivo): 6.1 ± 1.5 ng/mL; AUC ([1]; in vivo): 3.16 ng·h/mL |
| CC[C@H](C)[C@H](NC(=O)[C@@H]1CCCN1C(=O)[C@@H](NC(=O)C[C@@H](N)c1ccccc1)C(C)C)C(=O)N[C@@H](Cc1ccccc1)C(=O)N[C@H](C(=O)N[C@@H](Cc1ccc(O)cc1)C(=O)NCC(=O)N[C@@H](CCC(=O)O)C(=O)N[C@@H](CC(C)C)C(=O)N[C@@H](CCC(N)=O)C(=O)N[C@@H](CCCNC(=N)N)C(=O)N[C@@H](CC(C)C)C(=O)N[C@@H](CCC(N)=O)C(=O)N[C@@H](CCC(=O)O)C(=O)N[C@@H](CCCCN)C(=O)N[C@@H](CCC(=O)O)C(=O)N[C@@H](CCCNC(=N)N)C(=O)N1CCC[C@H]1C(=O)N[C@@H](CCCCN)C(=O)N1CCC[C@H]1C(=O)N[C@@H](CCC(N)=O)C(=O)O)[C@@H](C)O [Compound 4] (β3hPhg-VPIFTYGELQRLQEKERPKPQ-OH; N-terminus and C-terminus assumed) | 14.6 ± 8.23 ng/mL | 4.69 ng·h/mL | 11.0 ± 7.2% |  |
